Measured values taken from US20240109930A1, “TRIAZOLYL-METHYL SUBSTITUTED ALPHA-D-GALACTOPYRANOSIDE DERIVATIVES” (Idorsia Pharmaceuticals Ltd, priority 2021, published 2024).
pIC50: −log10 of the molar value.

Assays:
[1] = biological target: human Gal-1 (hGal-1) (Homo sapiens, UniProt P09382, C131S/C17S/C43S/C61S/C89S); experiment: Competitive binding assay: biotinylated hGal-1 binding to microplate-adsorbed asialofetuin (ASF); conditions: IC50 values from several measurements given as geomean
Procedure, shortened: (§1)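 Biotinylated hGal-3 or hGal-1 (preferably cysteine-free Cys→Ser mutant), 300–1000 ng/mL, competes with compound for ASF-coated wells for 3 h at 4 °C. Bound lectin detected with streptavidin-peroxidase (80 ng/mL, 1 h, 4 °C) and ABTS by absorbance; IC50 reported as geomean of several runs.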

[2] = biological target: human Gal-3 (hGal-3) (Homo sapiens (Human), UniProt P17931); experiment: Competitive binding assay: biotinylated hGal-3 binding to microplate-adsorbed asialofetuin (ASF); conditions: IC50 values from several measurements given as geomean
Sequence of human Gal-3 (hGal-3) (P17931 whole entry): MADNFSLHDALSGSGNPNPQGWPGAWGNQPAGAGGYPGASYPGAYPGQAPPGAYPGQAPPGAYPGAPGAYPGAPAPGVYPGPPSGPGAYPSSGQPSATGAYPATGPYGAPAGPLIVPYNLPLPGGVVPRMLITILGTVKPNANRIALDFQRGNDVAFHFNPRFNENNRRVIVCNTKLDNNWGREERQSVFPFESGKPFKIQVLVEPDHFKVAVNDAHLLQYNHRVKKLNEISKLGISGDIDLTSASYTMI
Procedure, shortened: as §1

CO[C@@H]1[C@@H](n2cc(-c3ccc(Cl)c(F)c3F)nn2)[C@@H](O)[C@@H](CO)O[C@@H]1Cc1cn([C@H]2CCCC[C@H]2F)nn1 [Example 2.1.81.B, (2R,3R,4S,5R,6R)-4-(4-(4-chloro-2,3-difluorophenyl)-1H-1,2,3-triazol-1-yl)-6-((1-((1S,2R)-2-fluorocyclohexyl)-1H-1,2,3-triazol-4-yl)methyl)-2-(hydroxymethyl)-5-methoxytetrahydro-2H-pyran-3-ol]
pIC50 [1]: 5.52
pIC50 [2]: 7.40

CO[C@@H]1[C@@H](n2cc(-c3ccc(Cl)c(F)c3F)nn2)[C@@H](O)[C@@H](CO)O[C@@H]1Cc1cn(C2(C(F)(F)F)CC2)nn1 [Ex 2.1.54., (2R,3R,4S,5R,6R)-4-(4-(4-Chloro-2,3-difluorophenyl)-1H-1,2,3-triazol-1-yl)-2-(hydroxymethyl)-5-methoxy-6-((1-(1-(trifluoromethyl)cyclopropyl)-1H-1,2,3-triazol-4-yl)methyl)tetrahydro-2H-pyran-3-ol]
pIC50 [1]: 6.15
pIC50 [2]: 7.52

CO[C@@H]1[C@@H](n2cc(-c3ccc(Br)c(F)c3F)nn2)[C@@H](O)[C@@H](CO)O[C@@H]1Cc1cn(C2(CCO)COC2)nn1 [Ex 4.1.22.]
pIC50 [1]: 5.94
pIC50 [2]: 7.15

CO[C@@H]1[C@@H](n2cc(-c3ccc(Br)c(F)c3F)nn2)[C@@H](O)[C@@H](CO)O[C@@H]1Cn1cc(C2(O)CCOCC2)nn1 [Ex 4.2.35.]
pIC50 [1]: 5.34
pIC50 [2]: 7.15

CCC1(c2cn(C[C@H]3O[C@H](CO)[C@H](O)[C@H](n4cc(-c5ccc(F)c(F)c5F)nn4)[C@H]3OC)nn2)COC1 [Ex 3.2.38.]
pIC50 [1]: 6.33
pIC50 [2]: 7.30

CO[C@@H]1[C@@H](n2cc(-c3ccc(Cl)c(F)c3F)nn2)[C@@H](O)[C@@H](CO)O[C@@H]1Cc1cn([C@]2(C)C[C@@H](O)C2)nn1 [Ex 2.1.27.]
pIC50 [1]: 6.15
pIC50 [2]: 7.52

CO[C@@H]1[C@@H](n2cc(-c3ccc(Cl)c(F)c3F)nn2)[C@@H](O)[C@@H](CO)O[C@@H]1Cc1cn(C2CC(C(F)(F)F)C2)nn1 (stereo partly shown) [Ex 2.1.41.]
pIC50 [1]: 5.04
pIC50 [2]: 6.89

CO[C@@H]1[C@@H](n2cc(-c3ccc(Cl)c(F)c3F)nn2)[C@@H](O)[C@@H](CO)O[C@@H]1Cc1cn(C2(CF)CC2(F)F)nn1 (stereo partly drawn) [Ex 2.1.76., (2R,3R,4S,5R,6R)-4-(4-(4-chloro-2,3-difluorophenyl)-1H-1,2,3-triazol-1-yl)-6-((1-(2,2-difluoro-1-(fluoromethyl)cyclopropyl)-1H-1,2,3-triazol-4-yl)methyl)-2-(hydroxymethyl)-5-methoxytetrahydro-2H-pyran-3-ol]
pIC50 [1]: 6.09
pIC50 [2]: 7.70

CO[C@@H]1[C@@H](n2cc(-c3ccc(F)c(F)c3F)nn2)[C@@H](O)[C@@H](CO)O[C@@H]1Cc1cn(C2(CF)COC2)nn1 [Ex 3.1.52.]
pIC50 [1]: 6.62
pIC50 [2]: 7.52

CO[C@@H]1[C@@H](n2cc(-c3ccc(C)c(F)c3F)nn2)[C@@H](O)[C@@H](CO)O[C@@H]1Cn1cc(C2(C)COC2)nn1 [Ex 1.2.6.]
pIC50 [1]: 5.53
pIC50 [2]: 7.40

CO[C@@H]1[C@@H](n2cc(-c3ccc(Cl)c(F)c3F)nn2)[C@@H](O)[C@@H](CO)O[C@@H]1Cc1cn(C2(CF)CC2)nn1 [Ex 2.1.46.]
pIC50 [1]: 5.97
pIC50 [2]: 7.52

CO[C@@H]1[C@@H](n2cc(-c3ccc(C)c(F)c3F)nn2)[C@@H](O)[C@@H](CO)O[C@@H]1Cn1cc(C2(O)CCOCC2)nn1 [Ex 1.2.35.]
pIC50 [1]: 5.35
pIC50 [2]: 7.15

CO[C@@H]1[C@@H](n2cc(-c3ccc(Cl)c(F)c3F)nn2)[C@@H](O)[C@@H](CO)O[C@@H]1Cc1cn(C2(CO)CCCC2)nn1 [Ex 2.1.5.]
pIC50 [1]: 5.65
pIC50 [2]: 7.22

CCC1(c2cn(C[C@H]3O[C@H](CO)[C@H](O)[C@H](n4cc(-c5ccc(C)c(F)c5F)nn4)[C@H]3OC)nn2)COC1 [Ex 1.2.38.]
pIC50 [1]: 5.58
pIC50 [2]: 7.52

CO[C@@H]1[C@@H](n2cc(-c3ccc(Cl)c(F)c3F)nn2)[C@@H](O)[C@@H](CO)O[C@@H]1Cc1cn(C2(CCO)COC2)nn1 [Ex 2.1.22.]
pIC50 [1]: 6.17
pIC50 [2]: 7.30

CO[C@@H]1[C@@H](n2cc(-c3ccc(Cl)c(F)c3F)nn2)[C@@H](O)[C@@H](CO)O[C@@H]1Cc1cn(C23CCOC(C)(C2)C3)nn1 [Ex 2.1.62., (2R,3R,4S,5R,6R)-4-(4-(4-chloro-2,3-difluorophenyl)-1H-1,2,3-triazol-1-yl)-2-(hydroxymethyl)-5-methoxy-6-((1-(1-methyl-2-oxabicyclo[3.1.1]heptan-5-yl)-1H-1,2,3-triazol-4-yl)methyl)tetrahydro-2H-pyran-3-ol]
pIC50 [1]: 5.92
pIC50 [2]: 7.52

CO[C@@H]1[C@@H](n2cc(-c3ccc(Cl)c(F)c3F)nn2)[C@@H](O)[C@@H](CO)O[C@@H]1Cc1cn(C2(C(F)(F)F)CCCC2)nn1 [Ex 2.1.67.]
pIC50 [1]: 5.99
pIC50 [2]: 7.40

COCC1(n2cc(C[C@H]3O[C@H](CO)[C@H](O)[C@H](n4cc(-c5ccc(Br)c(F)c5F)nn4)[C@H]3OC)nn2)CCC1 [Ex 4.1.21.]
pIC50 [1]: 5.82
pIC50 [2]: 7.15

CO[C@@H]1[C@@H](n2cc(-c3ccc(Br)c(F)c3F)nn2)[C@@H](O)[C@@H](CO)O[C@@H]1Cc1cn(C23CCOC(C)(C2)C3)nn1 [Ex 4.1.62., (2R,3R,4S,5R,6R)-4-(4-(4-bromo-2,3-difluorophenyl)-1H-1,2,3-triazol-1-yl)-2-(hydroxymethyl)-5-methoxy-6-((1-(1-methyl-2-oxabicyclo[3.1.1]heptan-5-yl)-1H-1,2,3-triazol-4-yl)methyl)tetrahydro-2H-pyran-3-ol]
pIC50 [1]: 5.69
pIC50 [2]: 7.70

CO[C@@H]1[C@@H](n2cc(-c3ccc(Cl)c(F)c3F)nn2)[C@@H](O)[C@@H](CO)O[C@@H]1Cc1cn(C(C)(C)CO)nn1 [Ex 2.1.9.]
pIC50 [1]: 5.78
pIC50 [2]: 7.40

COCC1(n2cc(C[C@H]3O[C@H](CO)[C@H](O)[C@H](n4cc(-c5ccc(C)c(F)c5F)nn4)[C@H]3OC)nn2)COC1 [Ex 1.1.21.]
pIC50 [1]: 6.08
pIC50 [2]: 7.40

CO[C@@H]1[C@@H](n2cc(-c3ccc(C#N)c(F)c3F)nn2)[C@@H](O)[C@@H](CO)O[C@@H]1Cc1cn([C@H]2CCOC[C@@H]2F)nn1 [Ex 5.1.66.CD]
pIC50 [1]: 5.80
pIC50 [2]: 7.52

COCC1(n2cc(C[C@H]3O[C@H](CO)[C@H](O)[C@H](n4cc(-c5ccc(C)c(F)c5F)nn4)[C@H]3OC)nn2)CC1 [Ex 1.1.7.]
pIC50 [1]: 5.29
pIC50 [2]: 7.22

CO[C@@H]1[C@@H](n2cc(-c3ccc(C)c(F)c3F)nn2)[C@@H](O)[C@@H](CO)O[C@@H]1Cc1cn(C23CC(C2)C3)nn1 [Ex 1.1.12.]
pIC50 [1]: 5.38
pIC50 [2]: 7.30

CO[C@@H]1[C@@H](n2cc(-c3ccc(Cl)c(F)c3F)nn2)[C@@H](O)[C@@H](CO)O[C@@H]1Cn1cc(C2(O)CC(F)(F)C2)nn1 [Ex 2.2.85.]
pIC50 [1]: 5.27
pIC50 [2]: 6.77

CO[C@@H]1[C@@H](n2cc(-c3ccc(Br)c(F)c3F)nn2)[C@@H](O)[C@@H](CO)O[C@@H]1Cc1cn(C2(C(F)F)CC2)nn1 [Ex 4.1.51.]
pIC50 [1]: 5.89
pIC50 [2]: 7.52

CO[C@@H]1[C@@H](n2cc(-c3ccc(Br)c(F)c3F)nn2)[C@@H](O)[C@@H](CO)O[C@@H]1Cc1cn(C23COC(C2)C3)nn1 [Ex 4.1.44.]
pIC50 [1]: 5.48
pIC50 [2]: 7.40

CO[C@@H]1[C@@H](n2cc(-c3ccc(Cl)c(F)c3F)nn2)[C@@H](O)[C@@H](CO)O[C@@H]1Cc1cn(C2CCC2(F)F)nn1 (single isomer, unassigned) [Example 2.1.63.A]
pIC50 [1]: 5.66
pIC50 [2]: 7.22

COC1=C(N2CC(c3ccc(C)c(F)c3F)NN2)C(O)=C(CO)O[C@@H]1Cn1cc(C23CCC(NC(=O)OC(C)(C)C)(CC2)CC3)nn1 (stereo partly shown) [Ex 1.2.37.]
pIC50 [1]: 5.03
pIC50 [2]: 7.70

CO[C@@H]1[C@@H](n2cc(-c3ccc(C)c(F)c3F)nn2)[C@@H](O)[C@@H](CO)O[C@@H]1Cc1cn(C2(CCO)COC2)nn1 [Ex 1.1.22.]
pIC50 [1]: 6.16
pIC50 [2]: 7.40

CO[C@@H]1[C@@H](n2cc(-c3ccc(F)c(F)c3F)nn2)[C@@H](O)[C@@H](CO)O[C@@H]1Cc1cn(C(C)(C)C(F)F)nn1 [Ex 3.1.28., (2R,3R,4S,5R,6R)-6-((1-(1,1-difluoro-2-methylpropan-2-yl)-1H-1,2,3-triazol-4-yl)methyl)-2-(hydroxymethyl)-5-methoxy-4-(4-(2,3,4-trifluorophenyl)-1H-1,2,3-triazol-1-yl)tetrahydro-2H-pyran-3-ol]
pIC50 [1]: 6.54
pIC50 [2]: 7.52

CO[C@@H]1[C@@H](n2cc(-c3ccc(Cl)c(F)c3F)nn2)[C@@H](O)[C@@H](CO)O[C@@H]1Cc1cn(C2CC2C(C)C)nn1 (stereo partly shown) [Ex 2.1.17.]
pIC50 [1]: 4.94
pIC50 [2]: 6.80

CO[C@@H]1[C@@H](n2cc(-c3ccc(Cl)c(F)c3F)nn2)[C@@H](O)[C@@H](CO)O[C@@H]1Cc1cn(C2(C(F)(F)F)COC2)nn1 [Ex 2.1.58., (2R,3R,4S,5R,6R)-4-(4-(4-chloro-2,3-difluorophenyl)-1H-1,2,3-triazol-1-yl)-2-(hydroxymethyl)-5-methoxy-6-((1-(3-(trifluoromethyl)oxetan-3-yl)-1H-1,2,3-triazol-4-yl)methyl)tetrahydro-2H-pyran-3-ol [1-(1,2,3-tri-deoxy-2-methoxy-3-[4-(4-chloro-2,3-difluorophenyl)-1H-1,2,3-triazol-1-yl]-α-D-galacto-pyranose)-1-(1-(3-trifluoromethyl-3-oxetanyl)-1H-triazol-4-yl)-methane]]
pIC50 [1]: 6.33
pIC50 [2]: 7.70

CO[C@@H]1[C@@H](n2cc(-c3ccc(F)c(F)c3F)nn2)[C@@H](O)[C@@H](CO)O[C@@H]1Cn1cc(C2(O)CCOCC2)nn1 [Ex 3.2.35.]
pIC50 [1]: 6.07
pIC50 [2]: 7.22

CO[C@@H]1[C@@H](n2cc(-c3ccc(Br)c(F)c3F)nn2)[C@@H](O)[C@@H](CO)O[C@@H]1Cn1cc(C2(O)CC2)nn1 [Ex 4.2.36.]
pIC50 [1]: 5.23
pIC50 [2]: 6.89
